Values quoted from earlier work as cited in patent publication US20250049738A1, “METHOD OF TREATMENT AND SELECTION OF PATIENTS BENEFITING FROM AGOMELATINE BASED ON EEG MEASUREMENTS” (Alto Neuroscience, Inc., priority 2023, published 2025).

Legend:
circadian rhythm = conditions: in vivo; cited from earlier work
depression = conditions: in vivo; cited from earlier work

Question: Which results are given for `COc1ccc2[nH]cc(CCNC(C)=O)c2c1` [melatonin]?
Answer: effect on circadian rhythm (circadian rhythm): phase advance circadian rhythm; antidepressant efficacy (depression): not an effective antidepressant
